Active and inactive are the calls of the source.
Key:
Hexokinase HKDC1 = target: T1, Hexokinase HKDC1 (Homo sapiens, UniProt Q2TB90); experiment: HKDC1 hexokinase inhibitors, dose response, biochemical, W721R variant (AID 504729); type: functional
T1 sequence (Q2TB90 whole entry): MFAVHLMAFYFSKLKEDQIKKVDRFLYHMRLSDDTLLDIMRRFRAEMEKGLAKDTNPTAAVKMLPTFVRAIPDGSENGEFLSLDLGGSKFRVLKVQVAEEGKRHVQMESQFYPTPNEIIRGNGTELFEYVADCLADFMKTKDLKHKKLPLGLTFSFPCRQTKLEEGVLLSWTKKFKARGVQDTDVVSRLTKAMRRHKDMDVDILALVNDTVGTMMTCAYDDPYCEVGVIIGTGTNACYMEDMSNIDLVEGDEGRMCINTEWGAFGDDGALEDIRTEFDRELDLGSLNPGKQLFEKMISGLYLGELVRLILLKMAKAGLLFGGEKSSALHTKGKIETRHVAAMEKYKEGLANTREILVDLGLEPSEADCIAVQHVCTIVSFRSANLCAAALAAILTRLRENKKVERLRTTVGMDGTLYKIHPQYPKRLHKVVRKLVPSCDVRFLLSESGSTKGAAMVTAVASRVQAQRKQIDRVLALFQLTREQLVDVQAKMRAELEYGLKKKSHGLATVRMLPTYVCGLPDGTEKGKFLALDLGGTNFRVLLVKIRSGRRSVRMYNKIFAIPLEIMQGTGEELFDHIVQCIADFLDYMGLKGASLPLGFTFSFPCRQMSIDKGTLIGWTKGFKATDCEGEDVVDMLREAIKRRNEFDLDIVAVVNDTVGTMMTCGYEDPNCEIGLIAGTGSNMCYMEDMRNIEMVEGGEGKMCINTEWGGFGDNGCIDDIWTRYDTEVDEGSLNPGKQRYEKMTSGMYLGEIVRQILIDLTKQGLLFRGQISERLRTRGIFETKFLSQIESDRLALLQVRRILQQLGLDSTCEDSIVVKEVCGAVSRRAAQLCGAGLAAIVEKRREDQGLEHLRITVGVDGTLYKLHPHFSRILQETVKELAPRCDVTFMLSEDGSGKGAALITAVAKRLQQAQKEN

Estrogen receptor = target: T2, Estrogen receptor (Homo sapiens, UniProt P03372);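 also: potency for inhibiting coactivator peptide recruitment to the receptor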
T2 sequence (P03372 whole entry): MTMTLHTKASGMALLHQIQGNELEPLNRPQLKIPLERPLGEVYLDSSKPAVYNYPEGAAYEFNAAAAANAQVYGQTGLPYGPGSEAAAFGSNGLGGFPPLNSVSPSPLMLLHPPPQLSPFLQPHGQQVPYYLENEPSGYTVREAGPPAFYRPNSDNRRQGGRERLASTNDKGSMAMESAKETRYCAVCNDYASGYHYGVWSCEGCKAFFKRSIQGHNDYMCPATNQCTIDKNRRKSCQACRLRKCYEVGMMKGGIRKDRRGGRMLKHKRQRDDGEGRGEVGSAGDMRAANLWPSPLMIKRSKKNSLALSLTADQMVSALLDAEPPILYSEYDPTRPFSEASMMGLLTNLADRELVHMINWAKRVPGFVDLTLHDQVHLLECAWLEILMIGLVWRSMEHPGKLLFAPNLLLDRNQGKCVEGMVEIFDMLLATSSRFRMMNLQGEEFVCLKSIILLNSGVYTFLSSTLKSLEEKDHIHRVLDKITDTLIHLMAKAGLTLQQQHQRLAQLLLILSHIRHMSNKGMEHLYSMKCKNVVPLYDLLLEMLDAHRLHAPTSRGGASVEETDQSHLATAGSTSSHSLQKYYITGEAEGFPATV

Estrogen receptor beta = Estrogen receptor beta (Homo sapiens, UniProt Q92731);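 also: recombinant ER-beta bound to coactivator SRC1 peptide in presence of estradiol agonist; inhibitors block coactivator peptide binding and lower the FRET signal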
Bcl-2-related protein A1 [1] = target: T3, Bcl-2-related protein A1 (Mus musculus, UniProt Q07440); experiment: Bfl-1 inhibitors blocking BH3 peptide binding, confirmation, biochemical, TR-FRET, mouse Bfl-1 (AID 621);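 also: TR-FRET binding of GST-Bfl-1 to FITC-labelled Bid peptide via terbium antibody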
T3 sequence (Q07440 whole entry): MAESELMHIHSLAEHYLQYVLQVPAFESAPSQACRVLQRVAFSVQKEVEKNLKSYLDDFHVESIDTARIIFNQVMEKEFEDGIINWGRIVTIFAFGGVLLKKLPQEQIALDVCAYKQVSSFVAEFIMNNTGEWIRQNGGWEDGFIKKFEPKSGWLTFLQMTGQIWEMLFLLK

Bcl-2-related protein A1 [2] = target: T3, Bcl-2-related protein A1; experiment: Bfl-1 binding inhibitors, SAR follow-up, biochemical, fluorescence polarization (AID 1070)
[3] = HepG2 cell cytotoxicity, dose response, cytotoxicity control for non-replicating M. tuberculosis project (AID 489018); type: functional; details: Mycobacterium tuberculosis
cells = type: functional
[4] = growth suppression of PTEN-null colon cells, dose response, cell-based, HCT116 PTEN knockout (AID 1047); type: functional;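 also: HCT116 colon tumor cells with PTEN knocked out; cells exposed to compound for 60 hours before readout; potency for loss of cell viability measured by luminescence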
[5] = growth suppression of beta-catenin-knockout colon cells, dose response, cell-based, HCT116, human colon tumor (AID 1045); type: functional;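 also: HCT116 colon tumor cells with beta catenin knocked out; cells exposed to compound for 60 hours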
[6] = THP-1 cell cytotoxicity, dose response, cytotoxicity control for non-replicating M. tuberculosis project (AID 489025); type: functional
[7] = Vero E6 cell cytotoxicity, dose response, cytotoxicity control for non-replicating M. tuberculosis project, secondary assay (AID 492998); type: functional, VeroE6; details: Vero C1008
[8] = A cytotoxicity screen of small molecule inhibitors of the PhoP region in Salmonella typhi identified in the primary screen. [Related pubchem assays: 1850, 1864, 1985 ]; type: functional
[9] = target: T4, Alkaline phosphatase, tissue-nonspecific isozyme (Homo sapiens, UniProt P05186); experiment: human TNAP enzyme inhibitors, SAR follow-up, biochemical, luminescent, dose response (AID 1056)
T4 sequence (P05186 whole entry): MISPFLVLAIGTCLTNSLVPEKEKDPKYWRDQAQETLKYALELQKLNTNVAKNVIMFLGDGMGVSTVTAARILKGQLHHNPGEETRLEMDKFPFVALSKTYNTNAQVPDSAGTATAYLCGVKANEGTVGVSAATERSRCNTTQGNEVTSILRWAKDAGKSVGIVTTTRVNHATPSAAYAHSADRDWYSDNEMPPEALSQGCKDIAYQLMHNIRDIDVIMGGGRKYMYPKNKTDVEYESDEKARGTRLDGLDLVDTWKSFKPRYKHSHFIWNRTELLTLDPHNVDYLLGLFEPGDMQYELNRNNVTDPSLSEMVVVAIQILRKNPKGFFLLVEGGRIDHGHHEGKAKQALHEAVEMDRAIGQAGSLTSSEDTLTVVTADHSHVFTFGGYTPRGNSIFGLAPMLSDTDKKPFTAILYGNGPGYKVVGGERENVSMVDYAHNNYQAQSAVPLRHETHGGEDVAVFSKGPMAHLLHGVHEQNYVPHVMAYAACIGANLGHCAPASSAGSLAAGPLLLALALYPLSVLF

[10] = target: Glyceraldehyde-3-phosphate dehydrogenase (Homo sapiens, UniProt P04406)
[11] = target: Alkaline phosphatase, placental type (Homo sapiens, UniProt P05187); experiment: PLAP enzyme inhibitors, confirmation, biochemical, luminescence (AID 1512); type: functional
[12] = target: T5, Replicative DNA helicase DnaB (Mycobacterium tuberculosis, UniProt P9WMR3); experiment: DnaB intein splicing inhibitors, dose response, biochemical, cell-free fluorescence (AID 449749); type: functional
T5 sequence (P9WMR3 whole entry): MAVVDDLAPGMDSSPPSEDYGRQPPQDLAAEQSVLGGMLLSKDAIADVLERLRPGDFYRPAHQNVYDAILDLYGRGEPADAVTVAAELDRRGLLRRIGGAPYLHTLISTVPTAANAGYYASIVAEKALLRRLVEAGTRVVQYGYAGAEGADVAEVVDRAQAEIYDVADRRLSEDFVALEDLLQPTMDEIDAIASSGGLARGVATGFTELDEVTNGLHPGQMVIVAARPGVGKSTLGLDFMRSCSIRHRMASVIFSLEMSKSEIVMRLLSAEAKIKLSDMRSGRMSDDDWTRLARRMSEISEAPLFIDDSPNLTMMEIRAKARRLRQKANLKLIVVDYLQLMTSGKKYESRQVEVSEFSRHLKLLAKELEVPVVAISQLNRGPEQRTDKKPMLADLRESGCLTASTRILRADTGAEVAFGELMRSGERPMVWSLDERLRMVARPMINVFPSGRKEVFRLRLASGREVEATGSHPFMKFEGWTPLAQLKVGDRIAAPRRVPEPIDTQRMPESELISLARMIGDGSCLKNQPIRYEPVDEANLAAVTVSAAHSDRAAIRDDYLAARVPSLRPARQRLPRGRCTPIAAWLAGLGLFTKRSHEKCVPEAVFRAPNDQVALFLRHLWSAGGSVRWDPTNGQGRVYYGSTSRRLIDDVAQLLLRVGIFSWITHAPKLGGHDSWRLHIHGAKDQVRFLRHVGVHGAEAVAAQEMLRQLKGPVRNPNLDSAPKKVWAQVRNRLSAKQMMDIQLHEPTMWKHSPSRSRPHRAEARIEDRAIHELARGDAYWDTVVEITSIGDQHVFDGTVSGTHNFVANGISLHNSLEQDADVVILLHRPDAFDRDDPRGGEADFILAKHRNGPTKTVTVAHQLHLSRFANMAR

Protein RecA = target: T6, Protein RecA (Mycobacterium tuberculosis, UniProt P9WHJ3); experiment: Fluorescence Cell-Free Homogeneous Dose Retest to Identify Inhibitors of RecA-Intein Splicing Activity. [Related pubchem assays (depositor defined):AID2097, AID2223, AID489010, AID492950]; type: functional
T6 sequence (P9WHJ3 whole entry): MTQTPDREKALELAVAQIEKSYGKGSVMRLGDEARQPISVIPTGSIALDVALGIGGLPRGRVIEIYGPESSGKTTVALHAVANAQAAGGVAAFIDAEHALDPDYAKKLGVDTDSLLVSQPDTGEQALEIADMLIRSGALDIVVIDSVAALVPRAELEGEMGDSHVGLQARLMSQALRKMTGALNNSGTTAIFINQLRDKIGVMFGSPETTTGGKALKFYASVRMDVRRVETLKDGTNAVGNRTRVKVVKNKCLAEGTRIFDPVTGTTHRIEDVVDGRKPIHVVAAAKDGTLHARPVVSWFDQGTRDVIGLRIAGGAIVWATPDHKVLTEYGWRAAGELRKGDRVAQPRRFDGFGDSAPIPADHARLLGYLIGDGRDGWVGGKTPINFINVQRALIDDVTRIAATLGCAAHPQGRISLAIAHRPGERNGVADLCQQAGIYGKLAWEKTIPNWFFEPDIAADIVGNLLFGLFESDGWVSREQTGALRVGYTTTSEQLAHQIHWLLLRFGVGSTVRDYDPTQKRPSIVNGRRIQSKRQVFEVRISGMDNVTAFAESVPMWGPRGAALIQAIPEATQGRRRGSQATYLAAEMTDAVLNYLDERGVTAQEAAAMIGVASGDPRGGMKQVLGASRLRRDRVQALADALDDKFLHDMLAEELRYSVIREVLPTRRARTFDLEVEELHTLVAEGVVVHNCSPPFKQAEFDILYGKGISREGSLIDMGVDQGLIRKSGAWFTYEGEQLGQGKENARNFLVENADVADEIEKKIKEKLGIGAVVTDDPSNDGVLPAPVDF

[13] = target: G2/mitotic-specific cyclin-B1 (Homo sapiens, UniProt P14635); experiment: G2/M cell cycle arrest in HeLa, late-stage follow-up, mechanism study for Wee1 degradation inhibitor project, FACS, panel member Cyclin B Degradation (AID 2088)
Wee1-like protein kinase = Wee1-like protein kinase (Homo sapiens, UniProt P30291); experiment: G2/M cell cycle arrest in HeLa, late-stage follow-up, mechanism study for Wee1 degradation inhibitor project, FACS, panel member Wee1 Degradation (AID 2088)
Wee1-like protein kinase, sequence (P30291 whole entry): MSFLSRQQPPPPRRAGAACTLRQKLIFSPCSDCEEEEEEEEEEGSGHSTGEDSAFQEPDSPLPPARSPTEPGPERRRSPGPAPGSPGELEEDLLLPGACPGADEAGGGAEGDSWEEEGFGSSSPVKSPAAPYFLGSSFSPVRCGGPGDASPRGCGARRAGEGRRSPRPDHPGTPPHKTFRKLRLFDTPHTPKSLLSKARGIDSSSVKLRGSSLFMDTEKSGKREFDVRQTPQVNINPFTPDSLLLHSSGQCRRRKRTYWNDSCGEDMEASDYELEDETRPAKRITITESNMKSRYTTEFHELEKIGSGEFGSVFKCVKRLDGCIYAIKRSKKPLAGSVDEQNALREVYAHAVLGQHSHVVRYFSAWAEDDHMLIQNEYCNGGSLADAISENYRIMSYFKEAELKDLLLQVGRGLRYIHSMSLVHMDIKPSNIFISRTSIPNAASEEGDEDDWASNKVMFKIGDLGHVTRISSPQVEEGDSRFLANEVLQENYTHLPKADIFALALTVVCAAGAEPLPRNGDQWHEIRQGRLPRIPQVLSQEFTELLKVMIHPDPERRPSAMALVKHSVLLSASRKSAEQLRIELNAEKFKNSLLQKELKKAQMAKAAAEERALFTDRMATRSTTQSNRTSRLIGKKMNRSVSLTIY

G2/mitotic-specific cyclin-B1, sequence (P14635 whole entry): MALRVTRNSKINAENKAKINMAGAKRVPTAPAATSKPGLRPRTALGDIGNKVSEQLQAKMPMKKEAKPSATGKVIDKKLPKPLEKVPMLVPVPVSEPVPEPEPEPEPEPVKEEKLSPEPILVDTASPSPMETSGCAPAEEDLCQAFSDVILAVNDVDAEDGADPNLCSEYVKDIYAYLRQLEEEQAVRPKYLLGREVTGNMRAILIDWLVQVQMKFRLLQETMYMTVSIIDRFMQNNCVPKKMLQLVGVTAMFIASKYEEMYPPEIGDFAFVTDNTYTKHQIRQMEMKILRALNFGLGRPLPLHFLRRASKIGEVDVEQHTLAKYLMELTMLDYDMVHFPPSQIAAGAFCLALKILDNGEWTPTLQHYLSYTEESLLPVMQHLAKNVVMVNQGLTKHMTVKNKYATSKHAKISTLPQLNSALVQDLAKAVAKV
Alkaline phosphatase, placental type, sequence (P05187 whole entry): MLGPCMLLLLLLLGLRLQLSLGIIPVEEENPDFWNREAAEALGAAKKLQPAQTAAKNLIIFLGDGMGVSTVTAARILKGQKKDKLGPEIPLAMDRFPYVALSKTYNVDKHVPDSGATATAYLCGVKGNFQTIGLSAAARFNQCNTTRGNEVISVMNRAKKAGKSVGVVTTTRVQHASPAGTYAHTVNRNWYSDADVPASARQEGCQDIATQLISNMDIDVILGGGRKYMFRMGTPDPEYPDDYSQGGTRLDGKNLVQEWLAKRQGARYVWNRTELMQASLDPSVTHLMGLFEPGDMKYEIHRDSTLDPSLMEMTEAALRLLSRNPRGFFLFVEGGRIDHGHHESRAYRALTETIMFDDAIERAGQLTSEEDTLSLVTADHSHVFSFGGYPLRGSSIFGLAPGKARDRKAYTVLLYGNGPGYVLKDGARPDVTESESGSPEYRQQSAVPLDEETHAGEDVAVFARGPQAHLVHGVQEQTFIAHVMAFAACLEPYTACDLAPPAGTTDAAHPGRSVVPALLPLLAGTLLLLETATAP
Glyceraldehyde-3-phosphate dehydrogenase, sequence (P04406 whole entry): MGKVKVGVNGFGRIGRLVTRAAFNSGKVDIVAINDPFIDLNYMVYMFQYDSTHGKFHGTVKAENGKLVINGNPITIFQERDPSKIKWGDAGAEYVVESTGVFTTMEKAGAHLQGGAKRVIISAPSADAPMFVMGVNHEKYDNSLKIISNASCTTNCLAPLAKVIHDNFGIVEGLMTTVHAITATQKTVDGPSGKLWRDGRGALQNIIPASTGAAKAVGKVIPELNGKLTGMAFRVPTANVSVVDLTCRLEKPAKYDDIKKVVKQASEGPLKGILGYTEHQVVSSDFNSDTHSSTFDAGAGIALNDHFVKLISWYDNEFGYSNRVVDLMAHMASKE
Estrogen receptor beta, sequence (Q92731 whole entry): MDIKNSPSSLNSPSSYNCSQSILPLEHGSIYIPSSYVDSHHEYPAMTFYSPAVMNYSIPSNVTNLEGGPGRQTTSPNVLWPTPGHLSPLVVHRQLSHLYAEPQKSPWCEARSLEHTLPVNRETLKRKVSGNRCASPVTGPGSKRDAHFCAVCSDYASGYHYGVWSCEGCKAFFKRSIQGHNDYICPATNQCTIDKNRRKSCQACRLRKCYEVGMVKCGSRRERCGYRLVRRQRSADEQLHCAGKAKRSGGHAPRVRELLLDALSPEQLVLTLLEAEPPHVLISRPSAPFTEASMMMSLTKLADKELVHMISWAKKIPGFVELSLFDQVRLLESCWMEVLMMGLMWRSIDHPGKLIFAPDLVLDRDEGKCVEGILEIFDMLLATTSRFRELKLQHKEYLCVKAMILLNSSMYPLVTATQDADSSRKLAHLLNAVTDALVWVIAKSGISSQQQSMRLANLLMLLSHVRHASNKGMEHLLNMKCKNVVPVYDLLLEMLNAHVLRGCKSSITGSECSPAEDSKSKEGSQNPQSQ

Cc1nc2c(c(=O)c3ccccc3n2C)c(=O)n1-c1ccc(F)cc1
IC50 (Hexokinase HKDC1): 8.25 µM (active)

CCOC(=O)c1c(C)oc2c1c(C(c1cccnc1)N1CCCCC1)c(O)c1ccccc12 (centres undefined)
IC50 (Estrogen receptor): > 50 µM (not active)
IC50 (Estrogen receptor beta): > 50 µM (not active)

COc1ccc2nc(O)c(-c3nnn(-c4ccc(Cl)nc4)n3)cc2c1
IC50 (Bcl-2-related protein A1 [1]): > 100 µM (not active)
IC50 (Bcl-2-related protein A1 [2]): > 100 µM (not active)

CCOc1cc(CNC(C)(C)CO)cc(Br)c1OCc1ccc(Cl)cc1Cl
CC50 [3]: 13.7 µM (active)
IC50 (cells): 10.5 µM (active)
EC50 [4]: 7.54 µM (active)
EC50 [5]: 6.52 µM (active)
CC50 [6]: 13.4 µM (active)
CC50 [7]: 7.44 µM (active)

COc1ccc2nc(NC(=O)C3CC(=O)N(c4ccccc4)C3)sc2c1 (centres undefined)
EC50 [8]: > 50 µM (active)

COc1ccccc1-c1nnc(SC)[nH]1
IC50 [9]: 7.95 µM (active)
IC50 [10]: > 100 µM (not active)
IC50 [11]: > 100 µM (inactive)

CN1CCc2nc(SCC(=O)Nc3ccc(F)cc3)c(C#N)cc2C1
AC50 [12]: > 380 µM (inactive)
IC50 (Estrogen receptor): > 50 µM (not active)
EC50 (Protein RecA): 38 µM (active)

Cc1ccc(-n2nnc(-c3cccnc3)n2)cc1
IC50 (Bcl-2-related protein A1 [1]): > 100 µM (not active)
IC50 (Bcl-2-related protein A1 [2]): > 100 µM (not active)

Cc1ccc(NC(=O)OCc2cccs2)cc1
EC50 [8]: > 50 µM (active)

Fc1ccc(-n2nnc(-c3cc4ccccc4nc3Cl)n2)cc1
IC50 (Bcl-2-related protein A1 [1]): > 100 µM (not active)
IC50 (Bcl-2-related protein A1 [2]): > 100 µM (not active)

OCCSc1n[nH]c(-c2ccccc2)n1
IC50 [9]: 16.2 µM (active)
IC50 [10]: > 100 µM (not active)
IC50 [11]: > 100 µM (inactive)

Cc1cc(C)n2cc(CSc3nnc(-c4ccccc4)c(-c4ccccc4)n3)nc2n1
IC50 (Hexokinase HKDC1): 12.5 µM (active)

[O-][n+]1onc2c3cc(-c4ccccc4)[nH]c3ccc21
EC50 [13]: > 55.7 µM (inactive)
EC50 (Wee1-like protein kinase): > 6.19 µM (active)

Cc1cc(O)nc(-n2nc(C)cc2NC(=O)Cc2ccccc2)n1
EC50 [13]: > 49.7 µM (inactive)
EC50 (Wee1-like protein kinase): > 49.7 µM (inactive)

Cc1cc(O)nc(-n2nc(C)cc2NC(=O)c2cccc(Cl)c2)n1
EC50 [13]: > 49.7 µM (inactive)
EC50 (Wee1-like protein kinase): > 49.7 µM (inactive)

CC1(C)N=C(N)N=C(Nc2cccc(Br)c2)N1
EC50 [8]: > 50 µM (active)

From ChEMBL document CHEMBL1201862, “PubChem BioAssay data set” (2004)
